Literature values as cited in US20160303051A1, “Burst Drug Release Compositions” (Wyeth LLC, priority 2009, published 2016).

**Q.** With `CC(C)Cc1ccc(C(C)C(=O)O)cc1` (stereo not shown) [Ibuprofen, ibuprofen] as the compound, how does the “solubility (BCS)” value read?
**A.** low solubility
